Experimental data taken from patent US10399924B2, “Deuterium substituted fumarate derivatives” (Biogen MA Inc., priority 2012, dated 2019).
Where a name gives a salt, the structure may show the parent alone. Read-outs that look alike come from different tables or passages of the source.

Legend:
[1] = test system: Nrf2 (ARE-luciferase reporter), DLD-1/ARE-E2; test: ARE-luciferase reporter assay of Nrf2 activation, DLD-1/ARE-E2 cells; assay type: cell-based, human; conditions: summary for DLD-1 and MCF-7 reporter cell lines
Method: Human cancer cell line DLD-1 and breast cancer cell line MCF7 reporter stable cell lines were generated by transfection with a firefly luciferase reporter construct harboring the luciferase cDNA cloned downstream of eight catenated copies of the antioxidant response element ([…] ID NO.:1). See Wang et al. Cancer Res. 2006; 66:10983-94. To measure Nrf2 activation in the ARE-luciferase reporter cell lines, the cells were plated in 96-well plates at 20-50 k cells/well 24 hours prior to stimulation with the test compounds. […] The reporter cells were harvested 24 hours-48 hours after addition of the compounds and lysed for detection of luciferase activity. Luciferase activity in the lysates was monitored using the Bright-Glo Luciferase Assay System of Promega and Tecan Genios Pro plate reader. Luciferase induction in the compound-treated cells was calculated as fold change over the baseline activity detected in control cultures treated with DMSO-containing media.

[2] = test system: Nrf2-Keap1 Pathway; test: DiscoverRx PathHunter Nrf2-Keap1 nuclear translocation biosensor assay; assay type: cell-based; conditions: agonist mode, 6 hours incubation at room temperature; read-out: Nrf2 activation EC50
Text: The PathHunter® Nuclear Translocation assay detects translocation of a target protein to, or from, the nucleus. In this system, Prolink™ (PK), a small enzyme fragment, is fused to the protein of interest and Enzyme Acceptor (EA) is localized in the nucleus. Activation of the signaling pathway induces the target protein to either transit into the nucleus, thus forcing complementation of the PK and EA fragments, or out of the nucleus, hindering complementation of the fragments. PathHunter Pathway cell lines were expanded from freezer stocks according to standard procedures. 5000 cells were seeded in Cell Plating Reagent 0 (containing 1% FBS) to a total volume of 20 μL into white walled, 384-well microplates and incubated for the overnight prior to testing. For Agonist determination, cells were incubated with sample to induce response. Dilution of sample stocks was performed to generate 100× sample in DMSO. […] Vehicle concentration was 1%. Assay signal was generated through a single addition of 25 μL (100% v/v) of PathHunter Flash Detection reagent, followed by a one hour incubation at room temperature. Microplates were read following signal generation with a PerkinElmer Envision™ instrument for chemiluminescent signal detection. Compound activity was analyzed using CBIS data analysis suite (ChemInnovation, CA). For agonist mode assays, percentage activity was calculated using the following formula: % Activity=100%×(mean RLU of test sample−mean RLU of vehicle control)/(mean MAX RLU control ligand−mean RLU of vehicle control).

[3] = Oral cassette co-administration PK with DMF in male SD rats (plasma, LC/MS/MS); conditions: equivalent oral dose of 50 mg/kg of DMF, same study
[4] = Oral PK at 100 mg/kg in male SD rats; conditions: in vivo, rat, read-out: half-life of MMF (converted)
Method: The concentration of the compounds was determined by LC/MS/MS. […] The concentration of D-MMF was determined by LC/MS/MS. […] The concentration of D-MMF was determined by LC/MS/MS.

SMILES | activation of ARE-dependent signaling of the luciferase reporter construct [1] | EC50 [2] | oral exposure compared to DMF [3] | half-life ([4]; male, SD, 100 mg/Kg oral dose) | half-life ([4]; oral, 100 mg/Kg, species not stated for this figure)
O=C(O)/C=C/C(=O)O.[2H]C([2H])([2H])OC(=O)/C=C/C(=O)OC([2H])([2H])[2H] [Example 1, (^2H6)dimethyl Fumaric Acid Ester] | able to activate ARE-dependent signaling | 6.57 µM | higher oral exposure |  | 
O=C(O)/C=C/C(=O)O.[2H]C([2H])([2H])OC(=O)/C=C/C(=O)O [Example 2, (^2H3)methyl Fumaric Acid Ester] | able to activate ARE-dependent signaling |  |  |  | 
COC(=O)/C=C/C(=O)OC [DMF, dimethyl fumarate, reference compound] |  | 5.4 µM |  |  | 
[2H]/C(C(=O)OC)=C(/[2H])C(=O)OC [Example 4] |  | 4.78 µM | higher oral exposure |  | 
[2H]/C(C(=O)O)=C(/[2H])C(=O)O.[2H]/C(C(=O)OC([2H])([2H])[2H])=C(/[2H])C(=O)OC([2H])([2H])[2H] [Example 8] |  | 7.97 µM | higher oral exposure |  | 
COC(=O)/C=C/C(=O)O [MMF, monomethyl fumarate] |  |  |  | 54 min | ~60 min
